Source: patent EP0216028A2, “Use of anthranilic-acid derivatives as anthelmintic medicaments” (HOECHST AKTIENGESELLSCHAFT, priority 1985, dated 1987)

Assays:
[1] = test system: Leberegel (Fasciola hepatica); assay: Chemotherapeutic test in sheep infected with liver fluke (egg count reduction / worm burden); format: in vivo; details: Tabelle 1, Wirtstier: Schaf, p.o.; for minimal effective dose: Fasciola hepatica, po, minimum curative dose, read-out: Dosis (>90% Reduktion der Wurmbürde); for Chemotherapeut. Index: quotient of Dosis tolerata maxima and Dosis curativa minima
From the text: (§1) Zur Feststellung der anthelminthischen Wirkung der Verbindungen der Formel I wurden chemotherapeutische Untersuchungen an ca. 25-30 kg schweren Schaflämmern ausgeführt, die entweder mit Metazerkarien von Fasciola hepatica oder mit Larven von Magen-Darm-Strongyliden, vornehmlich Haemonchus contortus und Trichostongylus colubriformis, oral infiziert worden waren. Nach Ablauf der Präpatenzperiode (Zeit zwischen Infektion und Geschlechtsreife der Parasiten mit beginnender Ausscheidung von Eiern oder Larven) wurde der Parasitenbefall durch Kotuntersuchungen gesichert. […] Unmittelbar danach wurde die Behandlung der Schafe (im allgemeinen 3 - 4 Tiere pro Wirkstoff, mindestens aber 2) vorgenommen. Den Tieren wurde oral oder parenteral eine Suspension von unterschiedlicher Wirkstoffmenge in jeweils 10 ml einer 1%igen Carboxymethylcellulose-Suspension appliziert. Jeweils am 7., 14. und 28. Tag nach der Behandlung wurde wiederum nach den vorstehend angegebenen Verfahren die Eizahl pro Gramm Kot ermittelt und ihre prozentuale Abnahme im Vergleich zum Ausgangswert vor der Behandlung errechnet. Mit einigen Verbindungen wurden außerdem beim Fasciola-Befall noch eine zusätzliche Prüftechnik angewandt: Nach Abschluß der Präpatenzperiode wurde bei Fasciola-positiven Schafen ein künstlicher Gallengang geschaffen, der am Ausgang der Gallenblase ein Sieb enthielt, so daß die nach der Behandlung abgetöteten Leberegel in der Gallenblase aufgefangen werden konnten. Vier bis sieben Tage nach der Behandlung wurden die so operierten und dann behandelten Schafe getötet, die abgetöteten Leberegel in der Gallenblase sowie noch eventuell in der Leber vorhandene lebende Leberegel gezählt und von der gesamten Wurmbürde der Prozentsatz der abgetöteten Parasiten berechnet.
(§2) Der chemotherapeutische Index gibt den Quotienten aus Do- sis tolerata maxima und Dosis curativa minima an.

[2] = test system: Magen-Darm-Würmer(Ostertagia, Haemonchur, Trichostrongylus, Cooperia, jeweils verschiedene Spezies); assay: Chemotherapeutic test in sheep infected with gastrointestinal worms (egg count reduction / worm burden); format: in vivo; details: Tabelle 2, Wirtstier: Schaf; for Chemotherapeut. Index / minimal effective dose: p.o.; for Chemotherapeut. Index: quotient of Dosis tolerata maxima and Dosis curativa minima; for minimal effective dose: Trichostrongylus, po, read-out: Dosis (>90% Reduktion der Wurmbürde)
From the text: as §1, §2

Structure (SMILES) | minimal effective dose [1] | Chemotherapeut. Index [1] | Dosis (>90% Reduktion der Wurmbürde) ([2]; result in words, route not printed (oral bzw. subkutan)) | Chemotherapeut. Index [2] | minimal effective dose [2]
O=[N+]([O-])c1cc(Cl)cc(-c2cc(Cl)cc([N+](=O)[O-])c2O)c1O [Niclofolan, 5,5'-Dichlor-2-2'-dihydroxy-3,3'-dinitro-biphenyl, reference compound] | 3 mg/kg | 3 | keine Wirkung | – | –
O=C(Nc1ccc(Oc2ccc(Cl)cc2)c(Cl)c1)c1cc(I)cc(I)c1O [Rafoxanide, 3'-Chlor-4'-(p-chlor-phenoxy)-3,5-dijod-salicylanilid, reference compound] | 7.5 mg/kg | 6 | – | 6 | 7.5 mg/kg
O=C(Nc1ccc(Cl)cc1)c1cc(Cl)cc(Cl)c1NS(=O)(=O)c1ccc(Cl)cc1 [Verbindung 13, 3,5-Dichlor-2-[(4-chlor-phenylsulfonyl)-amino]-benzoesäure-(4-chlor-anilid)] | 5 mg/kg | 10 | – | 5 | 10 mg/kg
O=C(Nc1ccc(Cl)cc1)c1cc(Cl)ccc1NS(=O)(=O)c1ccc(Br)cc1 [Verbindung 20, 5-Chlor-2-[(4-brom-phenylsulfonyl)-amino]-benzoesäure-(4-chlor-anilid)] | 2.5 mg/kg | 20 | – | 5 | 10 mg/kg
O=C(Nc1ccc(OC(F)(F)F)cc1)c1cc(Cl)ccc1NS(=O)(=O)c1ccc(Cl)c(Cl)c1 [Verbindung 35, 5-Chlor-2-[(3,4-dichlorphenylsulfonyl)-amino]-benzoesäure-(4-trifluormethoxy-anilid)] | 2.5 mg/kg | 20 | – | 5 | 10 mg/kg
O=C(Nc1ccc(Cl)cc1)c1cc([N+](=O)[O-])ccc1NS(=O)(=O)c1ccc(Cl)c(Cl)c1 [Verbindung 38, 2-[(3,4-Dichlor-phenylsulfönyl)-amino]-5-nitrobenzoesäure-(4-chlor-anilid)] | – | – | – | 6 | 7.5 mg/kg
CCN(C(=O)c1cc(Cl)ccc1N(C)S(=O)(=O)c1ccc(Cl)c(Cl)c1)c1ccc(Cl)cc1 [Verbindung 42] | 2.5 mg/kg | 20 | – | 10 | 5 mg/kg
